Experiment [1] has as its target T1, full-length SHP2 WT (SHP2-WT) (Homo sapiens, UniProt Q06124).
T1 construct: Recombinant human full-length SHP2 (1–594) WT and E76K mutants; made in house
Put plainly: DiFMUP fluorescence phosphatase inhibition assay, SHP2-WT activated with IRS-1 peptide. It counts as biochemical. The settings on record: DiFMUP at Km (60 μM), pH 6.0. The text has this: To test the synthesized compounds for their potential to inhibit SHP2 activity, a fluorescence intensity-based assay using 6,8-difluoro-4-methylumbelliferyl phosphate (DiFMUP) as the substrate was adapted for three recombinant SHP2 constructs: (1) the SHP2 catalytic domain (SHP2cat; residues 248–527), (2) the full-length SHP2-E76K oncogenic mutant, and (3) the full-length SHP2 WT (SHP2-WT). The recombinant SHP2 proteins were expressed and purified as described previously ([36]). A dually phosphorylated peptide derived from the insulin receptor substrate 1 (IRS-1) served as a surrogate binding protein and was used to activate SHP2-WT ([30], [36]). […] Michaelis–Menten experiments to determine the DiFMUP Michaelis–Menten constant (Km) for each SHP2 construct were performed as described previously ([36]) and yielded the following values: SHP2-WT, Km = 60 μM; SHP2-E76K, Km = 20 μM; and SHP2cat, Km = 20 μM. Relative maximum rates (Vmax) of the DiFMUP reactions expressed as relative fluorescence units per minute (RFU/min) were as follows: SHP2-WT, Vmax = 871 RFU/min; SHP2-E76K, Vmax = 2730 RFU/min; and SHP2cat, Vmax = 2912 RFU/min. IC50 values for each compound were determined from initial rates in 10-point dose–response assays using DiFMUP at a concentration corresponding to its Km value for the respective SHP2 construct. […] Replacements for the benzothiophenone were explored using analog #10.
Recombinant human full-length SHP2 (1–594) WT and E76K mutants, as well as the SHP2cat (248–527), were expressed and purified as described before ([36], [41]). Recombinant human PTP1B (1–300) and the codon-optimized STEP (280–566) catalytic domains were cloned into PET-15b and expressed as N-His-tagged fusion proteins. For expression, transformed BL21(DE3) cells were grown and induced similar as described for SHP2. Collected cells were resuspended in lysis buffer (25 mM Tris, pH 7.5, 300 mM NaCl, 50 mM imidazole, and 10% glycerol) with 100 mg/l RNaseA and were lysed with two passages using a microfluidizer. The lysate was clarified by centrifugation at 15,000g for 50 min and applied to nickel–nitrilotriacetic acid resin. The column resin was washed, and the PTP1B or STEP protein was eluted in lysis buffer at 300 mM imidazole. The PTP1B or STEP protein was further purified by S75 size-exclusion chromatography in 50 mM Tris, pH 7.5, 50 mM NaCl. The eluted peak fractions were supplemented with tris(2-carboxyethyl)phosphine to 10 mM, concentrated by ultrafiltration, and stored at −80 °C. The purified yield of PTP1B was 33 mg/l cell culture; the yield of STEP was 16 mg/l cell culture.
SHP2 inhibitors were tested at RT in a 384-well plate format standard phosphatase fluorescence intensity assay using DiFMUP (Invitrogen/Thermo Fisher Scientific) as a substrate and a total reaction volume of 25 μl. SHP2 inhibitors or vehicle (DMSO) were spotted in triplicate into a black Greiner FLUOTRAC 200 384-well microplate (catalog no.: 781076; Greiner) for a 10-point dose–response assay using an Echo 555 Liquid Handler (Labcyte, Inc). PTP working solutions were prepared at a 0.625 nM concentration (for a final concentration of 0.5 nM) in buffer containing 50 mM Bis–Tris, pH 6.0, 50 mM NaCl, 5 mM DTT, and 0.01% Tween-20. Prior to the assay, a dually phosphorylated IRS-1 peptide (625 nM [500 nM final] ([30])) was added to full-length WT SHP2 working solutions and incubated for 20 min. DiFMUP working solutions at 5× final concentration were prepared in 50 mM Bis–Tris, pH 6.0, 50 mM NaCl, and 0.01% Tween-20. About 20 μl of PTP working solution was dispensed into the microplate and incubated with inhibitor for 20 min at RT. […] The reaction was initiated by addition of 5 μl DiFMUP working solutions. Fluorescence intensity was measured in kinetic mode (every minute for 7 or 10 min) using a Tecan Spark Multimode Microplate Reader (Tecan) with an excitation wavelength of 360 nm and an emission wavelength of 460 nm. […]

For experiment [2], the system named is Kasumi-1 acute myeloid leukemia (AML) cells. Description: Cell viability (CellTiter-Glo), Kasumi-1. It is filed as cell-based. The following applies: for effect on Kasumi-1 cell growth: various concentrations, 3 days. How it is done:
Inhibition of SHP2 has been reported to inhibit the growth of cancer cells including Kasumi-1 acute myeloid leukemia (AML) and KYSE-520 esophageal cancer cells ([30]). […] Thus, we treated two TNBC cell lines, BT-549 and MDA-MB-468, with SBI-4668 or the SHP2 allosteric inhibitor SHP099 at various concentrations and determined cell viability after 72 h, compared with the vehicle control (Fig. 4C). […] Next, we performed an 11-day colony formation assay with TNBC cells treated with SBI-4668 or SHP099 at 5, 10, or 20 μM (Fig. 4D).
Viability of AML and esophageal carcinoma cells was assessed using the ATP-depletion assay CellTiter-Glo (Promega). Cells were harvested at 1 × 10^6/ml to 2 × 10^6 cells/ml with cell numbers determined by trypan blue using the Countess Cell counter (Thermo Scientific) and resuspended in culture media. About 3000 cells (in 20 μl) were seeded in a 384-well format white and clear-bottom microplate (catalog no.: 781098; Greiner) spotted with test compound or vehicle control (DMSO) using an Echo 555 Liquid Handler. Cells were incubated for 3 days, before 10 μl of CellTiter-Glo reagent mix was added to each well and incubated for 10 min at RT. Luminescence was read on a Tecan Spark Multimode Microplate Reader, and data were analyzed using GraphPad Prism software.
(ATP-based viability assays read luminescence as a measure of living cells.)

For orientation: IC50 means the midpoint of a concentration-inhibition curve. A high value points to a need for much substance. In experiment [1], `O=C1CCCC1=Cc1ccc(-c2ccc(O)c(C(=O)Nc3ccccc3)c2)o1` [SBI-3192, 2-Hydroxy-5-(5-((2-oxocyclopentylidene)methyl)furan-2-yl)-N-phenylbenzamide] displayed an IC50 of 4.1 µM.

Regarding `O=C(Nc1ccccc1)c1cc(-c2ccc(/C=C3\Sc4ccccc4C3=O)o2)ccc1O` [SBI-4668, (Z)-2-Hydroxy-5-(5-((3-oxobenzo[b]thiophen-2(3H)-ylidene)methyl)furan-2-yl)-N-phenylbenzamide], the IC50 in experiment [1] was found to be 15 µM; in experiment [2] (Homo sapiens, Kasumi 1, 72 h, 3 days in culture), 8.5 µM. For the same molecule, in experiment [2], the “effect on Kasumi-1 cell growth” value was “dose-dependently inhibited cancer cell growth”.

In experiment [1], `N#Cc1cc(-c2ccc(/C=C3\Sc4ccccc4C3=O)o2)ccc1O` [SBI-3404, (Z)-2-Hydroxy-5-(5-((3-oxobenzo[b]thiophen-2(3H)-ylidene)methyl)furan-2-yl)benzonitrile] registered an IC50 of 11 µM. Moreover, the “effect on Kasumi-1 cell growth” value in experiment [2] is “dose-dependently inhibited cancer cell growth”.

Take `O=C1/C(=C/c2ccc(-c3ccc(O)c(-c4nn[nH]n4)c3)o2)Sc2ccccc21` [SBI-3405, (Z)-2-((5-(4-Hydroxy-3-(2H-tetrazol-5-yl)phenyl)furan-2-yl)methylene)benzo[b]thiophen-3(2H)-one]: the IC50 in experiment [1] amounted to 4.2 µM.

In experiment [1], `Nc1ccc(NC(=O)c2cc(-c3ccc(/C=C4\Sc5ccccc5C4=O)o3)ccc2O)cc1` [SBI-2130, (Z)-N-(4-Aminophenyl)-2-hydroxy-5-(5-((3-oxobenzo[b]thiophen-2(3H)-ylidene)methyl)furan-2-yl)benzamide] displayed an IC50 of 5 µM. In experiment [2], the “effect on Kasumi-1 cell growth” value was “dose-dependently inhibited cancer cell growth”.

For the origin of these results see paper PMC8760490, “Discovery of novel furanylbenzamide inhibitors that target oncogenic tyrosine phosphatase SHP2 in leukemia cells” (The Journal of Biological Chemistry, 2021).
